In paper PMC9043997, “LEAP2 reduces postprandial glucose excursions and ad libitum food intake in healthy men” (Cell Reports Medicine, 2022):
Where a SMILES comes first, the peptide text is derived from it. Bridges are numbered along the chain shown (N, C = ends).

Tests used:
GHSR-null mice = assay: Plasma glucose and food intake after subcutaneous LEAP2 in GHSR-null mice; format: in vivo, mouse; conditions: female GHSR-null mice n = 8, LEAP2 3 μmol/kg subcutaneous
Protocol: (§1) Food intake and blood glucose measurements were measured in female GHSR-null mice (n = 8) and wild-type littermates (n = 10) (14–24 weeks of age). Mice were double-housed with matching genotype and age. All mice were fasted for four hours and randomized by mean body weight per cage and allocated into either vehicle (saline) or LEAP2 administration on the first day of the study. LEAP2 or vehicle was administered subcutaneously just before start of dark phase (6 PM). By start of dark phase, mice had ad libitum access to water and a normal chow diet. Cumulative food intake was measured one, two and four hours after administration and calculated as the average food intake per cage per g body weight of each mouse, respectively. Blood glucose was measured in blood from a tail puncture at baseline and one, two and four hours after administration by use of a glucometer (Contour ™xt meter; Ascensia Diabetes Care, Basel, Switzerland). One week later, mice underwent the same procedure, but with the opposite treatment. The concentration of the LEAP2 dose was 3 μmol/kg.

healthy men [1] = assay: Brown adipose tissue thermogenesis by thermal imaging; format: in vivo, human; conditions: iv LEAP2 ~25 pmol/kg/min, thermal imaging camera
Protocol: To assess BAT thermogenesis, temperature of the upper chest was measured from −10 to 0 min, 0 to 15 min, 90 to 105 min and 180 to 195 min using a thermal imaging camera (FLIR A655sc; FLIR Systems, Wilsonville, Oregon, USA). Participants were positioned approximately one meter from the camera in a hospital bed with slight elevation of the head and wearing long-sleeved shirts that exposed the upper chest. The emissivity for measurement of human skin temperatures was set to 0.98 as detailed by the manufacturer. Thermal images were collected at 30-s intervals and analyzed using the FLIR tools program (FLIR Systems, Wilsonville, Oregon, USA). Post hoc, the two supraclavicular regions and a region corresponding to the manubrium of the sternum were marked as regions of interest and the maximum temperature per image was recorded. An average of records from the two supraclavicular regions was used. The manubrium region was used as a negative control reflecting the overall cutaneous heat production.[37], [38], [39] For analysis of BAT thermogenesis, manubrium-corrected temperature was calculated as the average of the supraclavicular skin temperatures minus the manubrium skin temperature. […] Average room temperature was 22.5 ± 0.06 °C adjusted by two air conditioners (Electrolux EXP35U538CW; AB Electrolux, Stockholm, Sweden) and recorded four times during each experimental day. […]

wild-type mice = assay: Plasma glucose and food intake after subcutaneous LEAP2 in wild-type mice; format: in vivo, mouse
Protocol: as §1

healthy men [2] = assay: Plasma insulin, C-peptide and C-peptide/glucose ratio during LEAP2 infusion, crossover study; format: in vivo, human; conditions: mean ± SEM
Text: (§2) The infusion was terminated when participants had finished eating.
(§3) For analysis of plasma glucose, blood was distributed in fluoride heparin-coated tubes, centrifuged immediately for 30 s (12,100 g, room temperature) and measured bedside by the glucose oxidase method (YSI 2900 Biochemistry Analyzer; YSI Incorporated, Yellow Springs, Ohio, USA). For analysis of LEAP2, blood was collected in chilled K3EDTA tubes each containing 250 KIU of aprotinin. For analysis of acyl ghrelin, blood was collected in chilled K2EDTA tubes added 20 μL pefabloc (100 mg/mL; Merck Millipore, Burlington, Massachusetts, USA). Subsequently, pefabloc-treated plasma was acidified with HCl (12.5 μL 2M HCl per 500 μL plasma; Merck Millipore, Burlington, Massachusetts, USA). For analysis of glucagon, blood was collected in K2EDTA tubes. For analysis of GH, insulin, C-peptide, free fatty acids, glycerol, triglycerides and acetaminophen (paracetamol), blood was collected in tubes with lithium and heparin. All tubes were immediately cooled on ice, centrifuged for 15 min (2,000 g, 4°C) and stored at −80°C until analysis. LEAP2 concentrations were determined by an in-house radioimmunoassay directed against the N-terminal part of LEAP2. LEAP-2 was used for standards, and the tracer was a peptide composed of the 12 N-terminal amino acids of LEAP2, with a ^125I-labelled tyrosine added to the C-terminal end. The precision and accuracy of the assay were evaluated based on European Medicines Agency's guidelines for bioanalytical assay validation. […] Due to supply chain disruptions from the COVID-19 pandemic, acyl ghrelin was only measured in plasma samples at timepoints 0, 60, 105, 165 and 255 min. […] Plasma GH was measured by Immunodiagnostic system-iSYS assay (IS-3700; IDS Limited, Boldon, UK). The assay is based on chemiluminesence technology and was performed according to the manufacturer’|'s instructions. […] For analysis of glucagon, plasma was extracted in a final concentration of 70% ethanol. Glucagon was measured using a C-terminal directed antiserum (code number 4305) measuring glucagon of pancreatic origin as previously described.[40] […] Plasma insulin and C-peptide were measured using a two-sided electrochemiluminescence immunoassay (Atellica IM Analyzer; Siemens Healthcare, Ballerup, Denmark). Plasma triglycerides and acetaminophen were analyzed by spectrophotometric methods following enzymatic hydrolysis and oxidation (Siemens Atellica CH 930; Siemens Healthcare, Ballerup, Denmark). Plasma concentrations of free fatty acids and glycerol were determined by enzymatic methods modified to run on a COBAS 6000 automatic analyzer (Roche, Rødovre, Denmark) using a NEFA-HR assay (Wako Chemicals, Neuss, Germany) and glycerol assay (Randox Laboratories, Crumlin, UK), respectively.
(§4) Unless otherwise stated, results are presented as mean ± SEM. Baseline values were calculated as a mean of timepoints −35, −10 and 0 min or, when only available −10 and 0 min. Baseline values for the postprandial period were calculated as a mean of timepoint 60 min. Calculations of AUC were based on the trapezoidal rule. AUC values are reported for the period 0 to 255 min. To assess the fasting and postprandial periods separately, AUC values are reported for the periods 0 to 60 min and 60 to 255 min, respectively. Student’s paired t test was used to test for differences in baseline, peak, time to peak, AUC and mean values and ad libitum food intake in men.

healthy men [3] = assay: Plasma glucagon during LEAP2 infusion, crossover study; format: in vivo, human; conditions: mean ± SEM
Text: as §2, §3, §4

[4] = healthy men n = 20, LEAP2 day, before infusion
[5] = healthy men n = 20, iv LEAP2 ~25 pmol/kg/min, 0 to 255 min
[6] = healthy men n = 20, iv LEAP2 ~25 pmol/kg/min, fasting period
[7] = healthy men n = 20, iv LEAP2 ~25 pmol/kg/min, liquid mixed meal at 65 min
[8] = healthy men n = 20, iv LEAP2 ~25 pmol/kg/min, postprandial period
[9] = healthy men n = 20, iv LEAP2 ~25 pmol/kg/min, time = 60 min

## CC[C@H](C)[C@@H]1NC(=O)[C@@H]2CSSC[C@@H](C(=O)N[C@@H](CO)C(=O)N[C@@H](CC(C)C)C(=O)N[C@@H](CO)C(=O)N[C@H](C(=O)N[C@@H](C)C(=O)N[C@@H](CCC(N)=O)C(=O)N[C@@H](CCC(=O)O)C(=O)O)C(C)C)NC(=O)[C@H](CCCNC(=N)N)NC(=O)[C@H](CCCNC(=N)N)NC(=O)[C@H](CCCCN)NC(=O)[C@H](CCCNC(=N)N)NC(=O)[C@H](CSSC[C@H](NC(=O)[C@H](CO)NC(=O)[C@H](C)NC(=O)CNC(=O)[C@@H](NC(=O)[C@@H]3CCCN3C(=O)[C@H](CCCNC(=N)N)NC(=O)[C@H](CC(C)C)NC(=O)[C@H](CO)NC(=O)[C@@H](NC(=O)CNC(=O)[C@H](CCCNC(=N)N)NC(=O)[C@H](Cc3c[nH]c4ccccc34)NC(=O)[C@H](Cc3ccccc3)NC(=O)[C@@H]3CCCN3C(=O)[C@@H](NC(=O)[C@@H](N)CCSC)[C@@H](C)O)C(C)C)[C@@H](C)CC)C(=O)N[C@@H](CCCNC(=N)N)C(=O)N[C@@H](CC(=O)O)C(=O)N[C@@H](CC(=O)O)C(=O)N[C@@H](CO)C(=O)N[C@@H](CCC(=O)O)C(=O)N2)NC(=O)[C@H](CC(C)C)NC(=O)[C@H](CCCNC(=N)N)NC(=O)[C@H]([C@@H](C)O)NC1=O [LEAP2, liver-expressed antimicrobial peptide 2] (H-MTPFWRGVSLRPIGASCRDDSECITRLCRKRRCSLSVAQE-OH; disulfide 17-28, 23-33 (inferred); N-terminus and C-terminus assumed)
GHSR-null mice
  cumulative food intake after dosing vs vehicle: no effect
  plasma glucose after dosing vs vehicle: did not affect plasma glucose
Healthy men [1]
  BAT thermogenesis (manubrium-corrected supraclavicular skin temperature), LEAP2 vs placebo: no differences
wild-type mice; female wild-type mice n = 10, LEAP2 3 μmol/kg single subcutaneous dose, after 4 h fast
  plasma glucose during ad libitum food intake 1 h after dosing vs vehicle: significantly diminished increases in plasma glucose
wild-type mice; female wild-type mice n = 10, LEAP2 3 μmol/kg subcutaneous
  glucose-lowering effect at later time points (2 and 4 h): not at the later time points
wild-type mice; female wild-type mice n = 10, LEAP2 3 μmol/kg subcutaneous, chow ad libitum from start of dark phase
  cumulative food intake 2 and 4 h after dosing vs vehicle: lowered the cumulative food intake
Healthy men [2]; [4]
  C-peptide Baseline: 360 ± 21.4 pmol/L
  Insulin Baseline: 36.4 ± 1.70 pmol/L
Healthy men [2]; [5]
  C-peptide AUC: 218 ± 11.7 nmol·min/L
  Insulin AUC: 33.8 ± 2.63 nmol·min/L
Healthy men [2]; [6]
  C-peptide AUC0–60 min: 22.5 ± 1.18 nmol·min/L
  Insulin AUC0–60 min: 2.39 ± 0.09 nmol·min/L
Healthy men [2]; [7]
  C-peptide Peak: 1,524 ± 106 pmol/L
  C-peptide Time to peak: 136 ± 9.01 min
  Insulin Peak: 347 ± 38.6 pmol/L
  Insulin Time to peak: 110 ± 6.28 min
Healthy men [2]; [8]
  C-peptide AUC60–255 min: 196 ± 11.2 nmol·min/L
  Insulin AUC60–255 min: 31.5 ± 2.60 nmol·min/L
Healthy men [2]; [9]
  C-peptide Postprandial baseline: 365 ± 20.2 pmol/L
  Insulin Postprandial baseline: 38.6 ± 2.09 pmol/L
Healthy men [3]; [4]
  Glucagon Baseline: 6.57 ± 0.76 pmol/L
Healthy men [3]; [5]
  Glucagon AUC: 2.26 ± 0.20 nmol·min/L
Healthy men [3]; [6]
  Glucagon AUC0–60 min: 0.446 ± 0.044 nmol·min/L
Healthy men [3]; [7]
  Glucagon Peak: 13.0 ± 0.94 pmol/L
  Glucagon Time to peak: 116 ± 12.5 min
Healthy men [3]; [8]
  Glucagon AUC60–255 min: 1.82 ± 0.17 nmol·min/L
Healthy men [3]; [9]
  Glucagon Postprandial baseline: 7.35 ± 0.82 pmol/L
